Test results published in paper PMC8033753, “Proadrenomedullin N-Terminal 20 Peptides (PAMPs) Are Agonists of the Chemokine Scavenger Receptor ACKR3/CXCR7” (ACS Pharmacology & Translational Science, 2021).
Like-named read-outs stand apart in the source and are kept apart here. Where no end group is shown, it is not given here.

Legend:
ACKR3 = molecular target: T1, ACKR3 (Homo sapiens, UniProt P25106); assay: β-arrestin-2 recruitment to ACKR3, nanoluciferase complementation (NanoBiT) in HEK cells; type: cell-based; conditions: for activity toward ACKR3 (β-arrestin-2 recruitment), in words: concentration range up to 9 μM
T1 construct: expressed in transfected cells; host or cells: HEK293T
Protocol: (§1) Ligand-induced recruitment of β-arrestin, miniGi or miniGq proteins (engineered GTPase domain of Gα subunit)[46],[47] to the receptors was monitored using NanoBiT technology (Promega), as previously described.[27],[48] HEK293T cells (5 × 10^6 cells) were seeded in 10 cm dishes, and 24 h later, the cells were cotransfected with pNBe plasmids encoding the receptor C-terminally fused to SmBiT and β-arrestin, miniGi, or miniGq N-terminally fused to LgBiT. After 24 h, the cells were detached and incubated for 25 min at 37 °C with Nano-Glo Live Cell substrate diluted 200-fold, distributed into white 96-well plates (1 × 10^5 cells/well), and treated with the indicated concentrations of peptides. Luminescence was recorded during 20 min with a Mithras LB940 luminometer (Berthold Technologies). For the concentration–response curves, the signal recorded with a saturating concentration of full agonist for each receptor was set as 100%. For receptor screening experiments, results were expressed as fold vehicle, and an agonist chemokine (100 nM) listed in the IUPHAR repository of chemokine receptor ligands was included as a positive control for each receptor.
(§2) Concentration–response curves were fitted to the four-parameter Hill equation using an iterative, least-squares method (GraphPad Prism version 8.0.1). All curves were fitted to data points generated from the mean of at least three independent experiments. Statistical tests, i.e., ordinary one-way ANOVA and post hoc analysis were performed with GraphPad Prism 8.0.1. The p-values are indicated as follows: *, p < 0.05; **, p < 0.01; ***, p < 0.001; and ****, p < 0.0001.

MrgX2 = molecular target: T2, MrgX2 (Homo sapiens, UniProt Q96LB1); assay: β-arrestin-2 recruitment to MrgX2, NanoBiT in HEK cells; type: cell-based
T2 construct: expressed in transfected cells; host or cells: HEK293T
T2 sequence (Q96LB1 1-330): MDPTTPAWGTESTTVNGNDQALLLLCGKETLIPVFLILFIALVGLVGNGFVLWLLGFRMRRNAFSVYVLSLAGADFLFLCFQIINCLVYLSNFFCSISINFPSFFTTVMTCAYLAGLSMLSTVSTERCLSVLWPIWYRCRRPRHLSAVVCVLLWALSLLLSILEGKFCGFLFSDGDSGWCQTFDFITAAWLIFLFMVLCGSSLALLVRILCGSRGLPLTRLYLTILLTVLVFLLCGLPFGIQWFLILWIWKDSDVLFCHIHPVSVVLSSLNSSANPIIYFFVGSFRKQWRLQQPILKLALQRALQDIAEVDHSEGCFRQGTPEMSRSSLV
Protocol: as §1, §2

GPR182 = molecular target: T3, GPR182 (Homo sapiens, UniProt O15218); assay: β-arrestin-2 recruitment to GPR182 (NanoBiT screen); type: cell-based; conditions: peptides 3 μM
T3 construct: expressed in transfected cells; host or cells: HEK293T
Protocol: as §1

HEK-ACKR3 cells = assay: PAMP-12-FAM uptake by HEK-ACKR3 cells, imaging flow cytometry; type: cell-based, human; conditions: chemokine 200 nM, 15 min preincubation; PAMP-12-FAM 3 μM, 45 min at 37 °C
Protocol: HEK293T or HEK-ACKR3 cells were harvested in Opti-MEM and distributed into 96-well plates (3 × 10^5 cells/well). […] At 24 h post-transfection, the cells were harvested and treated as described above. Dead cells were excluded using Zombie NIR viability dye (BioLegend). Images of 1 × 10^4 in-focus, living single cells were acquired with an ImageStream Mark II imaging flow cytometer (Amnis) equipped with an extended depth of field (EDF) module and using 60× magnification. Samples were analyzed using Ideas6.2 software. The number of spots per cell was determined using a mask-based software wizard.

[1] = tested on: all known classical and atypical human chemokine receptors; assay: β-arrestin-2 recruitment screen toward all chemokine receptors (NanoBiT); type: cell-based; conditions: peptides 3 μM, fold change over vehicle
Protocol: as §1

[2] = pEC50 ± S.E.M, β-arrestin-2 recruitment, ACKR3 (Supplementary Table 2), HEK cells, NanoBiT, three independent experiments
[3] = EC50, β-arrestin-2 recruitment toward MrgX2, HEK cells, NanoBiT, normalised to full agonist, three independent experiments
[4] = pEC50 ± S.E.M, β-arrestin recruitment, MrgX2 (Supplementary Table 1), HEK cells, NanoBiT, NA: no activity detected in the concentration range tested

T3 sequence (O15218 whole entry, species assumed): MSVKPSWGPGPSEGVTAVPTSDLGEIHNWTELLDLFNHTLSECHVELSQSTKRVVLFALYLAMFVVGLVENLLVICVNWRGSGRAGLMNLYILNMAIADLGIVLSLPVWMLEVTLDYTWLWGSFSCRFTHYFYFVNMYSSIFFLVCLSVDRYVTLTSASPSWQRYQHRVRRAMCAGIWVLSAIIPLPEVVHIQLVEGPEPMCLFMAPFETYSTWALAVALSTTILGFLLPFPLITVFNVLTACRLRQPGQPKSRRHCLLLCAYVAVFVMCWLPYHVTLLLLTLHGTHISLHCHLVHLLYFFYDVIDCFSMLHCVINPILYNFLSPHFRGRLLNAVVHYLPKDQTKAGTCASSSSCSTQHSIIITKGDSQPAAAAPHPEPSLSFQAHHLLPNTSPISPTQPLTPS
T1 sequence (P25106 whole entry): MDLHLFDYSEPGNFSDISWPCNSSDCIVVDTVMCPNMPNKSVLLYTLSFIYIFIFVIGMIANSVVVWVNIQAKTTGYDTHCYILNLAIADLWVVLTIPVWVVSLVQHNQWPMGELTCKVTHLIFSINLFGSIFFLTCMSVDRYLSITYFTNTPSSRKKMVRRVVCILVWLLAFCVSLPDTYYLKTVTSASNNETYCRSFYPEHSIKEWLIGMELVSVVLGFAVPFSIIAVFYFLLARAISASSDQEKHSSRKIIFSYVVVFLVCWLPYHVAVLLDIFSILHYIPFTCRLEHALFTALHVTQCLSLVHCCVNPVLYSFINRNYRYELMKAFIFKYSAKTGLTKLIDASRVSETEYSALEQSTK

Compound | EC50 (ACKR3; [2]) [µM] | EC50 (MrgX2) [µM] | other results
CC(C)C[C@H](NC(=O)[C@H](C)NC(=O)[C@H](Cc1c[nH]c2ccccc12)NC(=O)[C@H](CCCCN)NC(=O)[C@H](CC(N)=O)NC(=O)[C@H](Cc1c[nH]c2ccccc12)NC(=O)[C@H](CCCCN)NC(=O)[C@H](CCCCN)NC(=O)[C@H](CCCNC(=N)N)NC(=O)[C@@H](N)Cc1ccccc1)C(=O)N[C@@H](CO)C(=O)N[C@@H](CCCNC(=N)N)C(=O)O | 1.58 | 2.29 | 
CC[C@H](C)[C@H](NC(=O)[C@H](CCC(N)=O)NC(=O)[C@H](Cc1c[nH]cn1)NC(=O)[C@H](C)NC(=O)[C@H](CC(C)C)NC(=O)[C@H](CCCCN)NC(=O)[C@H](CCC(N)=O)NC(=O)[C@@H](NC(=O)[C@@H](NC(=O)[C@@H]1CSSC[C@H](NC(=O)CNC(=O)[C@H](Cc2ccccc2)NC(=O)[C@H](CO)NC(=O)[C@H](CCCNC(=N)N)NC(=O)[C@H](CC(C)C)NC(=O)CNC(=O)[C@H](CCC(N)=O)NC(=O)[C@H](Cc2ccccc2)NC(=O)[C@H](CC(N)=O)NC(=O)[C@H](CC(N)=O)NC(=O)[C@H](CCSC)NC(=O)[C@H](CO)NC(=O)[C@H](CCC(N)=O)NC(=O)[C@H](CCCNC(=N)N)NC(=O)[C@@H](N)Cc2ccc(O)cc2)C(=O)N[C@@H](CCCNC(=N)N)C(=O)N[C@@H](Cc2ccccc2)C(=O)NCC(=O)N[C@@H]([C@@H](C)O)C(=O)N1)[C@@H](C)O)C(C)C)C(=O)N[C@@H](Cc1ccc(O)cc1)C(=O)N[C@@H](CCC(N)=O)C(=O)N[C@@H](Cc1ccccc1)C(=O)N[C@H](C(=O)N[C@@H](CC(=O)O)C(=O)N[C@@H](CCCCN)C(=O)N[C@@H](CC(=O)O)C(=O)N[C@@H](CCCCN)C(=O)N[C@@H](CC(=O)O)C(=O)N[C@@H](CC(N)=O)C(=O)N[C@H](C(=O)N[C@@H](C)C(=O)N1CCC[C@H]1C(=O)N[C@@H](CCCNC(=N)N)C(=O)N[C@@H](CO)C(=O)N[C@@H](CCCCN)C(=O)N[C@H](C(=O)N[C@@H](CO)C(=O)N1CCC[C@H]1C(=O)N[C@@H](CCC(N)=O)C(=O)NCC(=O)N[C@@H](Cc1ccc(O)cc1)C(N)=O)[C@@H](C)CC)C(C)C)[C@@H](C)O [ADM] |  |  | activity toward GPR182, in words (GPR182): no activity
CC(C)C[C@H](NC(=O)[C@H](C)NC(=O)[C@H](Cc1c[nH]c2ccccc12)NC(=O)[C@H](CCCCN)NC(=O)[C@H](CC(N)=O)NC(=O)[C@H](Cc1c[nH]c2ccccc12)NC(=O)[C@H](CCCCN)NC(=O)[C@H](CCCCN)NC(=O)[C@H](CCCNC(=N)N)NC(=O)[C@@H](N)Cc1ccccc1)C(=O)N[C@@H](CO)C(=O)N[C@@H](CCCNC(=N)N)C(N)=O [PAMP-12] |  |  | EC50 (MrgX2; [3]): 0.785 µM; EC50 (MrgX2; [4]): 0.776 µM; activity toward GPR182, in words (GPR182): no activity
CSCC[C@H](NC(=O)[C@H](CC(C)C)NC(=O)CNC(=O)[C@H](Cc1ccccc1)NC(=O)[C@H](Cc1ccccc1)NC(=O)[C@H](CCC(N)=O)NC(=O)[C@H](CCC(N)=O)NC(=O)[C@@H]1CCCN1C(=O)[C@H](CCCCN)NC(=O)[C@@H]1CCCN1C(=O)[C@@H](N)CCCNC(=N)N)C(N)=O [substance P, reference compound] |  |  | activity toward ACKR3 (β-arrestin-2 recruitment), in words (ACKR3; HEK cells, NanoBiT): no activity
AFRKKWNKWALSR-NH2 | 2 | 0.891 | 
AMY: CGRP family peptide (KCNTATCATQRLANFLVHSSNNFGAILSSTNVGSNTY; not fully specified (C-terminus, bridges); cysteine pairing not given here; UniProt P10997 34-70, looked up) [reference compound] |  |  | activity toward ACKR3 (β-arrestin-2 recruitment), in words (ACKR3; HEK cells, NanoBiT): No activity
ARKKWNKWALSR-NH2 | 46.8 | 0.933 | 
ARLDVASEFRKKWNKWA [PAMP1-17] | 331 | 95.5 | 
ARLDVASEFRKKWNKWALSR-NH2 [PAMP] |  |  | EC50 (ACKR3): > 10 µM; EC50 (MrgX2; [3]): 6.2 µM; EC50 (MrgX2; [4]): 6.17 µM; activity toward GPR182, in words (GPR182): no activity
CT: CGRP family peptide [reference compound] |  |  | activity toward ACKR3 (β-arrestin-2 recruitment), in words (ACKR3; HEK cells, NanoBiT): No activity
CXCL12: chemokine, full agonist of ACKR3; purchased from PeproTech |  |  | effect of chemokine preincubation on PAMP-12-FAM accumulation in HEK-ACKR3 cells, in words (HEK-ACKR3 cells): reduced PAMP-12 accumulation to background levels
DVASEFRKKWNKWALSR-NH2 [PAMP 4-20] | 178 | 3.31 | 
FAKKWNKWALSR-NH2 | 9.33 | 1 | 
FKKKWNKWALSR-NH2 | 3.31 | 1.45 | 
FRAKWNKWALSR-NH2 | 1.35 | 0.977 | 
FRKAWNKWALSR-NH2 | 0.269 | 0.661 | 
FRKKANKWALSR-NH2 | 7.59 | 2 | 
FRKKFNKWALSR-NH2 | 4.27 | 0.589 | 
FRKKWAKWALSR-NH2 | 0.832 | 0.479 | 
FRKKWDKWALSR-NH2 | 0.589 | 0.479 | 
FRKKWNAWALSR-NH2 | 1.26 | 0.55 | 
FRKKWNKAALSR-NH2 | 2.24 | 2.51 | 

Compound | EC50 (ACKR3; [2]) [µM] | EC50 (MrgX2) [µM] | other results
FRKKWNKFALSR-NH2 | 1.15 | 1.05 | 
FRKKWNKWAASR-NH2 | 2.88 | 1.48 | 
FRKKWNKWAFSR-NH2 | 0.955 | 0.741 | 
FRKKWNKWALAR-NH2 | 0.912 | 0.339 | 
FRKKWNKWALFR-NH2 | 0.575 | 0.209 | 
FRKKWNKWALS-NH2 [FRKKWNKWALS -] | 2.57 | 1.55 | 
FRKKWNKWALSA-NH2 | 11.2 | 5.75 | 
FRKKWNKWALSK-NH2 | 1.02 | 0.794 | 
FRKKWNKWALTR-NH2 | 0.575 | 0.269 | 
FRKKWNKWFLSR-NH2 | 0.513 | 0.417 | 
FRKKWNKWGLSR-NH2 | 1.58 | 1.1 | 
FRKKWNKYALSR-NH2 | 0.776 | 0.741 | 
FRKKWNRWALSR-NH2 | 0.331 | 1.95 | 
FRKKWQKWALSR-NH2 | 0.776 | 4.68 | 
FRKKYNKWALSR-NH2 | 3.16 | 2.45 | 
FRKRWNKWALSR-NH2 | 0.759 | 1.91 | 
FRRKWNKWALSR-NH2 | 0.468 | 2.75 | 
KWNKWALSR-NH2 [PAMP(12–20)] |  |  | agonist activity toward the other 24 chemokine receptors tested, in words [1]: do not activate
RKKWNKWALSR-NH2 [- RKKWNKWALSR] | 28.8 | 2.09 | 
WNKWALSR-NH2 [PAMP 13-20] | 11.7 |  | 
YRKKWNKWALSR-NH2 | 6.76 | 0.912 | 
